According to PubChem BioAssay AID1996:
≈ marks a conversion by molar mass, not a printed value.

details: buffer; pH 7.4; 200.0 µM

| Structure (SMILES) | solubility kinetic [µg/mL] |
| --- | --- |
| OCCCc1nc2ccccc2n1CCCCOc1ccccc1 | 44.6 (≈ 137 µM) |
| CCCCCCN1C=CC(=C2C(=O)c3ccccc3C2=O)C=C1 | < 0.7 |
| CC1(C)c2cc(Cl)ccc2-n2c1cc(O)c(-c1ccccc1)c2=O | 47.8 (≈ 142 µM) |
| Cc1ccc(S(=O)(=O)Nc2c(C)nn(C)c2C)cc1C | > 44 |
| S=c1[nH]nc(Nc2ccccc2)s1 | > 31.4 |
| CCOC(=O)N1CCc2c(sc3ncn(C)c(=O)c23)C1 | 36.7 (≈ 125 µM) |
| CCOCc1c(C(=O)NCC(c2ccco2)N2CCCC2)oc2ccccc12 (stereo unspecified) | 56.2 (≈ 147 µM) |
| CCOC(=O)/C(C#N)=C1\C(=O)N(Cc2ccccc2)c2ccccc21 | 1.3 (≈ 3.91 µM) |
| C#CC(CC)(CC)NC(=O)/C=C/C(=O)O | 27.7 (≈ 132 µM) |
| O=C(COC(=O)/C=C/c1cccc(F)c1)Nc1cccc(S(=O)(=O)NC2=NCCCCC2)c1 | 18.3 (≈ 38.6 µM) |
| O=C(COC(=O)c1cccnc1Cl)Nc1ccc(S(=O)(=O)N2CCOCC2)cc1 | 57.5 (≈ 131 µM) |
| CCN(CC)C(=O)N1c2ccccc2Sc2ccccc21 | 2.8 (≈ 9.38 µM) |
| Cc1ccc(NC(=O)CCN2C(=O)c3ccccc3C2=O)cc1 | 8.9 (≈ 28.9 µM) |
| CC(=O)Nc1ccc(NC(=O)COC(=O)Cn2cnc3ccccc32)cc1 | > 55 |
| Cn1nc(C(=O)NC2CCCC2)c2ccccc2c1=O | > 40.7 |
| COc1ccc(/C=C(\C#N)C(=O)OC2CCOC2=O)cc1 (stereo unspecified) | > 43.1 |
| C=CCOc1ccc(/C=C2/C(=O)ON=C2C)cc1OC | 26.2 (≈ 95.9 µM) |
| Cc1cccc(NC(=O)CN2C(=O)NC3(CCCC3)C2=O)n1 | > 45.3 |
| O=C(O)CSC(=S)N1CC2CC(C1)c1cccc(=O)n1C2 (stereo unspecified) | > 48.7 |
| NC(=O)C1CCN(C(=O)CCn2c(=O)oc3ccccc32)CC1 | > 47.6 |
| O=C(CS(=O)c1ccc(F)cc1)N1CCOCC1 (stereo unspecified) | > 40.7 |
| COc1cccc(/C=C(\CC(=O)O)c2nc3ccccc3s2)c1 | 41.1 (≈ 126 µM) |
| COc1ccc(OCC(=O)Nc2nccs2)cc1 | 39.1 (≈ 148 µM) |
| CCC(=O)Nc1ccc2c(c1)ncn2CCc1ccccc1 | > 44 |
| S=C(NCc1ccco1)N1CCN(c2cccc(Cl)c2)CC1 | 12 (≈ 35.7 µM) |

| Structure (SMILES) | solubility kinetic [µg/mL] |
| --- | --- |
| COC(=O)c1nn(-c2cccc(Cl)c2)cc(OC)c1=O | > 44.2 |
| Cc1nn(C)c(C)c1NS(=O)(=O)c1ccc(Cl)s1 | > 45.9 |
| Br.COc1cccc(C(=O)CSc2nccn2C)c1 | > 51.5 |
| CC(NC(=O)CCN1C(=O)c2ccccc2C1=O)c1ccccc1 (stereo unspecified) | > 48.4 |
| CCOC(=O)c1cc2c(ccn2C)n1Cc1ccc(Cl)cc1 | 1.3 (≈ 4.1 µM) |
| N#CCNC(=O)C1CC(=O)N(CCc2ccc(F)cc2)C1 (stereo unspecified) | 39.7 (≈ 137 µM) |
| COc1ccc(C(=O)O)cc1S(=O)(=O)N1CCSCC1 | > 47.6 |
| Cc1ccc2c(c1)cc(C(=O)NCc1ccccc1)n2C | 3.5 (≈ 12.6 µM) |
| Cc1nnc(SCc2cc(=O)[nH]c(=S)[nH]2)s1 | > 40.9 |
| COc1ccc(OC)c2sc(Cl)nc12 | 18.4 (≈ 80.1 µM) |
| Cc1ccc2nc3c(nc2c1C)C(O)=C3O | 24.7 (≈ 115 µM) |
| COc1ccc(CNC(=O)/C=C/C(=O)O)cc1 | 35 (≈ 149 µM) |
| CCOC(=O)c1cc(NC(=O)c2cccnc2)ccn1 | 37.1 (≈ 137 µM) |
| CC(C)(C)NC(=O)c1ccccc1NC(=O)c1ccc2c(c1)OCO2 | 5.3 (≈ 15.6 µM) |
| O=C(Nc1cccc(Cl)c1)C1CCCN(c2cnccn2)C1 (stereo unspecified) | > 47.5 |
| CN(C)CCn1c(COc2ccccc2)nc2ccccc21.Cl.O | > 60.7 |
| CCN(C1CCS(=O)(=O)C1)S(=O)(=O)c1ccc2ccccc2c1 (stereo unspecified) | 15.9 (≈ 45 µM) |
| COc1ccc(CC(=O)Nc2cccc3ccccc23)cc1OC | 7.1 (≈ 22.1 µM) |
| COc1ccc(NS(=O)(=O)c2cccc3ccccc23)cc1 | 22.4 (≈ 71.5 µM) |
| CC(=O)Nc1ccc2c(c1)nc(CCNC(=O)c1ccco1)n2C | 48.2 (≈ 148 µM) |
| O=[N+]([O-])c1cccc2ccc(N3CCOCC3)nc12 | 38.4 (≈ 148 µM) |
| COc1ccc(NC(=S)NCCCN2CCOCC2)cc1 | > 46.4 |
| Cc1ccc(N2C(=O)N(C(C)C)C(C)(C)CC2(C)O)cc1 (stereo unspecified) | > 43.6 |
| CCN(CC(=O)Nc1ccccc1Br)C1CCCCC1 | 9.1 (≈ 26.8 µM) |
| Cc1c(Cl)cccc1NC(=S)NCCc1ccccn1 | > 45.9 |

| Structure (SMILES) | solubility kinetic [µg/mL] |
| --- | --- |
| Cc1nc(OCC(C)C)c2sc3nc4c(cc3c2n1)COC(C)(C)C4 | 14.6 (≈ 40.8 µM) |
| O=C(CNC(=O)c1ccc2c(c1)OCO2)Nc1ncccc1O | > 47.3 |
| CN/C(=C\[N+](=O)[O-])NCCSCc1csc(CN(C)C)n1 | > 49.7 |
| CC(=O)c1cnc(-c2cccc(Cl)c2)s1 | 1.3 (≈ 5.47 µM) |
| CCCCNC(=S)N1CCN(c2nc3ccccc3s2)CC1 | 0.9 (≈ 2.69 µM) |
| O=C(Nc1cc(S(=O)(=O)N2CCCC2)ccc1Cl)c1cc(F)c(F)c(F)c1F | 17.7 (≈ 40.5 µM) |
| CC(=O)Nc1ccc(S(=O)(=O)N2c3ccc(F)cc3CCC2C)cc1 (stereo unspecified) | 45.9 (≈ 127 µM) |
| CCOC(=O)c1nn(-c2ccc3c(c2)OCCO3)cc1O | > 43.5 |
| COc1ccc2[nH]c3c(=O)n(CCc4ccccc4)cnc3c2c1 | 0.6 (≈ 1.88 µM) |
| COCCNC(=O)/C(C#N)=C/c1cccs1 | > 35.4 |
| CC1CCCCC1NC(=O)Cn1cnc2c1c(=O)n(C)c(=O)n2C (stereo unspecified) | > 50 |
| N#Cc1c(NC(=O)c2ccco2)sc2c1CCC2 | 9.4 (≈ 36.4 µM) |
| Nc1ccc(C(=O)Nc2cccc(NC(=O)c3ccc(N)cc3)c2)cc1 | 34.8 (≈ 100 µM) |
| O=C(NC1=NCCS1)c1ccc(Cl)cc1 | 11.5 (≈ 47.8 µM) |
| O=C(Nc1cccnc1Cl)c1cc(-c2ccc(F)cc2)on1 | < 0.2 |
| O=S(=O)(NCc1cccs1)c1ccccc1Cl | > 43.2 |
| Cc1cc(=O)[nH]c2c3ccccc3nn12 | > 29.9 |
| O=C(O)CNC(=S)N(Cc1ccccc1F)C1CCCCC1 | > 48.7 |
| CCOc1ccc(C(=O)N(CN2CCCC2=O)c2cccc(Cl)c2)cc1 | > 55.9 |
| CCOC(=O)c1csc(NC(=O)CCSc2ccccc2)n1 | 1.1 (≈ 3.27 µM) |
| CCOC(=O)c1ccc(NC(=O)NCc2cccnc2)cc1 | > 44.9 |
| CCOc1ccc(OCC(=O)OC(C)C(=O)NC2CCCC2)cc1 (stereo unspecified) | > 50.3 |
| COc1ccc(NC(=O)c2ccc3[nH]c(C)c(C)c3c2)c(OC)c1 | 1.9 (≈ 5.86 µM) |
| CCOC(=O)c1sc(N)c(C#N)c1COC(=O)C1=COCCO1 | 11.6 (≈ 34.3 µM) |
| O=C(COC(=O)c1cccs1)NC1CCCC1 | 36.5 (≈ 144 µM) |

| Structure (SMILES) | solubility kinetic [µg/mL] |
| --- | --- |
| Cc1ccc(CN2CCCN(Cc3ccccc3C)S2(=O)=O)cc1 | 0.5 (≈ 1.45 µM) |
| Nc1cc(Cl)ccc1C(=O)OCC(=O)N1CCCC1 | 21.4 (≈ 75.7 µM) |
| O=C1CNC(=S)N1CCCn1ccnc1 | 31.5 (≈ 140 µM) |
| Cc1ccc(SC(C)C(=O)N2CCN(c3ccccc3)CC2)cc1 (stereo unspecified) | 34.9 (≈ 102 µM) |
| NC(=O)COc1ccccc1 | 21 (≈ 139 µM) |
| COC(=O)c1cc(Nc2cc(C)c3c(O)cccc3n2)cc(C(=O)OC)c1 | < 0.4 |
| Cc1cccc(NC(=S)NC2CCCC2)c1C | 34.1 (≈ 137 µM) |
| O=C(c1ccc(F)cc1)N1CCC(c2ccccc2)C1 (stereo unspecified) | 39.8 (≈ 148 µM) |
| O=C(CCc1nnc(C2CCCCC2)o1)NCc1ccc(F)c(F)c1 | > 52.4 |
| Cc1c(Cl)c(=O)oc2cc(OCC(=O)N3CCCC(C)C3)ccc12 (stereo unspecified) | 38 (≈ 109 µM) |
| Cc1cccc2cc(COC(=O)c3cccc([N+](=O)[O-])c3)c(=O)[nH]c12 | 1.5 (≈ 4.43 µM) |
| COc1ccc(Nc2nc(Cl)c(C=O)s2)cc1 | 11.1 (≈ 41.3 µM) |
| O=C(COC(=O)c1ccccc1Br)Nc1ccc(F)cc1 | 28.7 (≈ 81.5 µM) |
| Cc1ccc(S(=O)(=O)Nc2nc3ccccc3nc2N2CCOCC2)cc1 | > 57.7 |
| CCOc1ccc2oc(C(=O)NC(C)(C)CC)c(C)c2c1 | 11.5 (≈ 39.7 µM) |
| O=C(NN=C1CCCC1)C1COc2ccccc2O1 (stereo unspecified) | > 39 |
| O=C(Nc1ccccn1)c1cc(-c2cccc(Cl)c2)nc2ccccc12 | < 0.3 |
| Nc1ccccc1C(=O)NC1CCCCNC1=O (stereo unspecified) | > 37.1 |
| Cc1ccc(C)c(OCCCCN2CCNCC2)c1C.O=C(O)C(=O)O | > 55 |
| O=C(NC(=S)Nc1ccc(CN2CCOCC2)cc1)c1cccc(F)c1 | 27 (≈ 72.3 µM) |
| O=C(CSc1nc(-c2ccccc2)cc(=O)[nH]1)Nc1ccccc1F | < 0.2 |
| Cc1ccc(CN2CCN(c3ccccc3)CC2)o1.O=C(O)C(=O)O | 49.1 |
| O=C(Nc1cccnc1)c1cc([N+](=O)[O-])ccc1Cl | > 41.7 |
| CCCn1c(N)c(C(=O)COc2ccc(Br)cc2F)c(=O)n(C)c1=O | 3.9 (≈ 9.42 µM) |
| O=C(C1CCCCC1)N1CC(=O)N2CCc3ccccc3C2C1 (stereo unspecified) | > 46.9 |

| Structure (SMILES) | solubility kinetic [µg/mL] |
| --- | --- |
| COc1ccccc1-c1nc(COc2ccc(Cl)cc2Cl)no1 | < 0.4 |
| O=C(Nc1cc(Cl)ccc1O)c1cc(-c2ccco2)on1 | 1.4 (≈ 4.59 µM) |
| CC(=O)c1ccc(N2CCN(C(=O)c3cc(S(=O)(=O)N4CCOCC4)ccc3C)CC2)cc1 | > 70.7 |
| CCCC(=O)OCC(=O)Nc1ccccc1C#N | > 36.9 |
| Cc1cc(C(=O)Nc2cc(C(C)(C)C)on2)c(C)o1 | 3.8 (≈ 14.5 µM) |
| Cc1cccc(Cn2cnc3c(sc4nc(C)cc(C)c43)c2=O)c1 | < 0.2 |
| Cc1c(C=O)c2ccccc2n1CCOc1ccccc1 | 6.2 (≈ 22.2 µM) |
| CCC(=NCCCn1ccnc1)c1c(O)n(-c2ccccc2)c(=O)[nH]c1=O | > 55.1 |
| COc1cccc(N2CCN(C(=S)Nc3ccccc3)CC2)c1 | 2.9 (≈ 8.86 µM) |
| O=C(NCCN1CCOCC1)c1ccc(Cl)cc1 | > 40.3 |
| Cc1nc2ccc([N+](=O)[O-])cc2c(=O)n1Cc1ccc(Cl)cc1 | 0.6 (≈ 1.82 µM) |
| NS(=O)(=O)c1ccc(NS(=O)(=O)c2ccc(Br)cc2)cc1 | > 58.7 |
| O=C(NCC1CCCO1)c1cccc(S(=O)(=O)Nc2cccc(C(F)(F)F)c2)c1 (stereo unspecified) | 2.1 (≈ 4.9 µM) |
| CCCN1CCN(CCCNC(=S)Nc2ccc(F)cc2)CC1 | 49 (≈ 145 µM) |
| CCCC(=O)Nc1cc(OC)c(C(=O)OC)cc1Cl | > 42.9 |
| O=C(CCCc1ccccc1)Nc1ccccc1[N+](=O)[O-] | 15.2 (≈ 53.5 µM) |
| c1ccc2c(c1)nc(N1CCOCC1)c1ccccc12 | 14.9 (≈ 56.4 µM) |
| COc1cc(N2CCCC2)c(OC)cc1C=O | > 35.3 |
| CC(=O)NC(C)Cc1cn(Cc2ccccc2)c2ccccc12 (stereo unspecified) | > 46 |
| COc1cccc(OC)c1C(=O)NC(C)CCc1ccccc1 (stereo unspecified) | 44.2 (≈ 141 µM) |
| Cc1ccc(NC(=O)c2ccc3c(c2)OCCO3)cc1C | 25.8 (≈ 91.1 µM) |
